From patent US5866577A, “Aromatic amidine derivatives and salts thereof” (priority 1991, dated 1999)
Structures can show the parent of a compound that is named as a salt.

How the values were obtained:
[1] = Solubility observed in preparation (solubility to any solvent); format: physicochemical; details: hydrochloride monohydrate
[2] = system: male Slc:SD rats; assay: Toxicity Test by Repeated Oral Administration to Rat; format: in vivo
Procedure: Toxicity Test by Repeated Oral Administration to Rat
Each of the compounds of the present invention was dissolved in distilled water and administered orally to each of five five-week old male Slc:SD rats, at a dose of 800 mg/kg body weight. The oral administration was carried out once a day and repeated for 10 days to observe mortality.

[3] = system: thrombus formed on copper wire in arteriovenous shunt; assay: Antithrombotic Effect by Oral Administration to Rat in an Arteriovenous Shunt Model; format: in vivo, male STD:Wistar rat; details: for Thrombus formed: mean ± S.E. (n = 6), p < 0.05 per control
Procedure: Antithrombotic Effect by Oral Administration to Rat in an Arteriovenous Shunt Model
Amtithrombotic effect by oral administration of the compound of the present invention was measured by slightly modifying the procedure disclosed in Thrombosis Research, vol. 54, pp. 399-410, 1989.
A predetermined amount of a compound to be tested was dissolved in purified water and administered orally to a male STD:Wistar rat, and the rat was anesthetized 15 minutes after the administration. An artery clip was attached to proximally the carotid artery of the thus anesthetized rat to stop blood circulation and to insert and fix an end of a shunt filled with physiological saline, while the other end of the shunt was inserted into the jugular vein and fixed. In this instance, the shunt was prepared by indwelling a copper wire (0.17 mm in diameter and 20 cm in length) in a polyethylene tube (Hibiki No. 5; 5/3 mm in outer diameter and 21 cm in length) and connecting each end of the tube with a polyethylene tube (Hibiki No. 3; 1 mm in outer diameter and 3 cm in length) using a 3 mm silicone tube. After 30 minutes of the administration, the artery clip was removed to flow blood into the shunt. After 7 minutes of the blood recirculation, the copper wire was pulled out together with formed thrombus and washed with 10 ml of physiological saline. Thereafter, the amount of thrombus formed on the copper wire was determined as protein in accordance with the procedure disclosed in Journal of Biological Chemistry, vol. 193, pp. 265-275, 1951. As a control, water was administered instead of the compound to be tested to calculate thrombosis inhibition rate after administration of the compound.

[4] = system: male Slc:SD rats; assay: Toxicity Test by Single Oral Administration to Rat; details: in vivo
[5] = Measurement of Solubility in Water
Procedure: A fixed amount of water was added to a varying amounts of each sample, and the mixture was agitated on a shaker at 25° C. for 10 minutes.

[6] = system: human blood plasma (clotting time); assay: Measurement of Anticoagulant Activity (plasma clotting time, CT2); format: biochemical; details: concentration which doubles the control clotting time, 37° C.
Procedure: Measurement of Anticoagulant Activity A blood plasma sample was prepared from human blood using a centrifuge. […] Thereafter, clotting time was measured using CLOTEC (Sanko Junyaku Co., Ltd.). A clotting time measured without adding a compound to be tested was used as a control, and a concentration of the test compound which doubles the control clotting time was calculated (hereinafter referred to as "CT2") as an index of the anticoagulant activity.

[7] = prior-art statement; cited from earlier work
[8] = biological target: human FXa (Homo sapiens, UniProt P00742); assay: Measurement of Activated Blood Coagulation Factor X (FXa) Inhibition Activity; format: biochemical; details: substrate S-2222, 37° C., 15 minutes
Chain of human FXa (P00742 235-488 limits assumed): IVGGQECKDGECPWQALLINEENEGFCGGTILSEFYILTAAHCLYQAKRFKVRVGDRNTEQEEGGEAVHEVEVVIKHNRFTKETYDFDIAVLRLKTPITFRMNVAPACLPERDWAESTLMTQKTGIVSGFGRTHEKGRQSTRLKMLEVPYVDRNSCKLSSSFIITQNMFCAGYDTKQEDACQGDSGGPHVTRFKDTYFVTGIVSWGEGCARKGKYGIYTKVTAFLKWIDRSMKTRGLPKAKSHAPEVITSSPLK
Chain of human FXa (P00742 41-179 limits assumed): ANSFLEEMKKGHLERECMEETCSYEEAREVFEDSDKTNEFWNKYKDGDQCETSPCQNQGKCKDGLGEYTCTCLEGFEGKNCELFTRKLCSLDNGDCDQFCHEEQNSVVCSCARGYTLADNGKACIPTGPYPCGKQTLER
Procedure: Measurement of Activated Blood Coagulation Factor X (FXa) Inhibition Activity
A 180 μl portion of physiological saline solution containing a compound to be tested was mixed with 200 μl of Tris-HCl buffer (pH 8.4) and 100 μl of 1 mM S-2222 (KabiVitrum AB) aqueous solution, and the mixture was incubated at 37° C. 20 μl of Tris-HCl buffered saline (pH 7.45) containing 0.6 unit/ml of human FXa was added to the mixture. After 15 minutes of incubation at the same temperature, the reaction was stopped by adding 100 μl of 60% acetic acid, and absorbance of the reaction mixture was measured. A reaction mixture with no addition of a test compound was used as a blank, and another reaction mixture in which 60% acetic acid was added prior to the addition of FXa was used as a control.

[9] = system: FXa and thrombin; details: prior-art statement; cited from earlier work
[10] = system: anticoagulant effect; details: oral; prior-art statement; cited from earlier work
[11] = oral 800 mg/kg once a day for 10 days, 5 rats administered

Compound: Cl.N=C(N)c1ccc2ccc(CC(C(=O)O)c3ccc(OCC4CCNCC4)cc3)cc2c1.O (stereo not drawn) [Inventive Example 18, 3-(7-amidino-2-naphthyl)-2-[4-[(4-piperidinyl)methoxy]-phenyl]propionic Acid Hydrochloride Monohydrate]
- solubility to any solvent (in words) [1]: very low

Compound: CC(=N)N1CC[C@H](Oc2ccc(C(Cc3ccc4ccc(C(=N)N)cc4c3)C(=O)O)cc2)C1.Cl.O.O.O.O.O (single isomer, unassigned; (+)) [Inventive Example 45]
- Mortal Case [2, 11]: 0
- Thrombosis inhibition ([3]; 10 mg/kg): 34%
- Thrombus formed ([3]; 10 mg/kg): 585 ± 85 µg
- Thrombosis inhibition ([3]; 30 mg/kg): 60%
- Thrombus formed ([3]; 30 mg/kg): 356 ± 51 µg
- mortality [4]: No mortal case
- solubility at 10 min [5]: ≥ 200 mg/mL
- Anti-Coagulation CT2 [6]: 0.49 µM

Compound: Cl.Cl.N=C(N)c1ccc2oc(CC(C(=O)O)c3ccc(O[C@H]4CCNC4)cc3)cc2c1 (stereo partly drawn) [Inventive Example 19, 3-(5-amidino-2-benzofuranyl)-2-[4-[((3S)-3-pyrrolidinyl)-oxy]phenyl]propionic Acid Dihydrochloride]
- Mortal Case [2, 11]: 0
- solubility at 10 min [5]: ≥ 450 mg/mL

Compound: N=C(N)c1ccc2oc(CCc3cc4cc(C(=N)N)ccc4o3)cc2c1 [DABE, 1,2-bis(5-amidino-2-benzofuranyl)ethane, reference compound]
- water solubility (in words) [7]: very low water solubility
- IC50 [8]: 95 nM
- solubility at 10 min [5]: ≤ 5 mg/mL
- separation of FXa and thrombin inhibitory activities (in words) [9]: cannot be separated sufficiently from each other
- Anti-Coagulation CT2 [6]: 1.6 µM
- anticoagulant effect when administered orally (in words) [10]: does not show its anticoagulant effect when administered orally

Compound: Cl.Cl.N=C(N)c1ccc2sc(CC(C(=O)O)c3ccc(O[C@H]4CCNC4)cc3)cc2c1 (stereo partly drawn) [Inventive Example 25, 3-(5-amidinobenzo[b]thien-2-yl)-2-[4-[((3S)-3-pyrrolidin-yl)oxy]phenyl]propionic Acid Dihydrochloride]
- Mortal Case [2, 11]: 0
- solubility at 10 min [5]: ≥ 500 mg/mL

Compound: CC(=N)N1CC[C@H](Oc2ccc(C(Cc3cc4cc(C(=N)N)ccc4s3)C(=O)O)cc2)C1 (stereo partly drawn) [Inventive Example 88, 2-[4-[((3S)-1-acetimidoyl-3-pyrrolidinyl)oxy]phenyl]-3-(5-amidinobenzo[b]thien-^2-yl)propionic Acid Dihydrochloride]
- Mortal Case [2, 11]: 0

Compound: Cl.Cl.N=C(N)c1ccc2cc(CC(C(=O)O)c3ccc(O[C@H]4CCNC4)cc3)[nH]c2c1 (stereo partly drawn) [Inventive Example 69, 3-(6-amidino-2-indolyl)-2-[4-[((3S)-3-pyrrolidinyl)oxy]-phenyl]propionic Acid Dihydrochloride]
- Mortal Case ([2]; rat, in vivo, po, 800 mg/kg): 0
